Assay results taken from ChEMBL document CHEMBL1201862, “PubChem BioAssay data set” (2004).
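Cultured in 96-well plates, cells were exposed to test compound for 48 hours across five concentrations. GI50 = concentration required for 50% inhibition of growth.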 The source made the active and inactive calls. Rule as the data show it: active = GI50 up to about 1.1 µM and inactive = higher.

Legend:
Experiment in all cases: NCI-60 cell line screen, 48 h
786-0 = test system: 786-0
A549 = test system: A549
ACHN = test system: ACHN
CCRF-CEM = test system: CCRF-CEM
COLO 205 = test system: COLO 205
DLD-1 = test system: DLD-1
DMS-114 = test system: DMS-114
DMS-273 = test system: DMS-273
EKVX = test system: EKVX
HCC 2998 = test system: HCC 2998
HCT-116 = test system: HCT-116
HL-60 = test system: HL-60
HOP-18 = test system: HOP-18
HOP-62 = test system: HOP-62
HOP-92 = test system: HOP-92
HT-29 = test system: HT-29
IGROV-1 = test system: IGROV-1
K562 = test system: K562
KM-20L2 = test system: KM-20L2
KM12 = test system: KM12
LOX IMVI = test system: LOX IMVI
M14 = test system: M14
M19-MEL = test system: M19-MEL
MOLT-4 = test system: MOLT-4
Malme-3M = test system: Malme-3M
NCI-H226 = test system: NCI-H226
NCI-H23 = test system: NCI-H23
NCI-H460 = test system: NCI-H460
NCI-H522 = test system: NCI-H522
OVCAR-3 = test system: OVCAR-3
OVCAR-8 = test system: OVCAR-8
RPMI-8226 = test system: RPMI-8226
RXF 393 = test system: RXF 393
SF-268 = test system: SF-268
SF-295 = test system: SF-295
SF-539 = test system: SF-539
SK-MEL-28 = test system: SK-MEL-28
SK-MEL-2 = test system: SK-MEL-2
SK-OV-3 = test system: SK-OV-3
SN12C = test system: SN12C
SNB-19 = test system: SNB-19
SNB-75 = test system: SNB-75
SNB-78 = test system: SNB-78
SR = test system: SR
SW-620 = test system: SW-620
TK-10 = test system: TK-10
U-251 = test system: U-251
UACC-257 = test system: UACC-257
UACC-62 = test system: UACC-62
UO-31 = test system: UO-31
XF498 = test system: XF498
LXFL 529 = test system: LXFL 529
A498 = test system: A498
BT-549 = test system: BT-549
DU-145 = test system: DU-145
HCT-15 = test system: HCT-15
Hs-578T = test system: Hs-578T
MCF7 = test system: MCF7
MDA-MB-231 = test system: MDA-MB-231
MDA-MB-435 = test system: MDA-MB-435
MDA-N = test system: MDA-N
NCI/ADR-RES = test system: NCI/ADR-RES
OVCAR-4 = test system: OVCAR-4
OVCAR-5 = test system: OVCAR-5
PC-3 = test system: PC-3
SK-MEL-5 = test system: SK-MEL-5
T47D = test system: T47D

CC(=O)OC1CC2(C)OC(Cc3ccccc32)O1 (stereo not drawn)
GI50 (786-0): > 100 µM (inactive) | GI50 (A549): > 100 µM (inactive) | GI50 (ACHN): > 100 µM (inactive) | GI50 (CCRF-CEM): > 100 µM (inactive) | GI50 (COLO 205): > 100 µM (inactive) | GI50 (DLD-1): > 100 µM (inactive) | GI50 (DMS-114): > 100 µM (inactive) | GI50 (DMS-273): > 100 µM (inactive) | GI50 (EKVX): > 100 µM (inactive) | GI50 (HCC 2998): > 100 µM (inactive) | GI50 (HCT-116): > 100 µM (inactive) | GI50 (HL-60): > 100 µM (inactive) | GI50 (HOP-18): > 100 µM (inactive) | GI50 (HOP-62): > 100 µM (inactive) | GI50 (HOP-92): 53.6 µM (inactive) | GI50 (HT-29): > 100 µM (inactive) | GI50 (IGROV-1): > 100 µM (inactive) | GI50 (K562): > 100 µM (inactive) | GI50 (KM-20L2): > 100 µM (inactive) | GI50 (KM12): > 100 µM (inactive) | GI50 (LOX IMVI): > 100 µM (inactive) | GI50 (M14): > 100 µM (inactive) | GI50 (M19-MEL): > 100 µM (inactive) | GI50 (MOLT-4): > 100 µM (inactive) | GI50 (Malme-3M): > 100 µM (inactive) | GI50 (NCI-H226): > 100 µM (inactive) | GI50 (NCI-H23): > 100 µM (inactive) | GI50 (NCI-H460): > 100 µM (inactive) | GI50 (NCI-H522): > 100 µM (inactive) | GI50 (OVCAR-3): > 100 µM (inactive) | GI50 (OVCAR-8): > 100 µM (inactive) | GI50 (RPMI-8226): > 100 µM (inactive) | GI50 (RXF 393): > 100 µM (inactive) | GI50 (SF-268): > 100 µM (inactive) | GI50 (SF-295): > 100 µM (inactive) | GI50 (SF-539): > 100 µM (inactive) | GI50 (SK-MEL-28): > 100 µM (inactive) | GI50 (SK-MEL-2): > 100 µM (inactive) | GI50 (SK-OV-3): > 100 µM (inactive) | GI50 (SN12C): > 100 µM (inactive) | GI50 (SNB-19): > 100 µM (inactive) | GI50 (SNB-75): 65.9 µM (inactive) | GI50 (SNB-78): > 100 µM (inactive) | GI50 (SR): > 100 µM (inactive) | GI50 (SW-620): > 100 µM (inactive) | GI50 (TK-10): > 100 µM (inactive) | GI50 (U-251): > 100 µM (inactive) | GI50 (UACC-257): > 100 µM (inactive) | GI50 (UACC-62): > 100 µM (inactive) | GI50 (UO-31): > 100 µM (inactive) | GI50 (XF498): > 100 µM (inactive)

Cn1cc(NC(=O)[C@H]2CCC(N)=N2)cc1C(=O)NCCC(=N)N
GI50 (786-0): > 100 µM (inactive) | GI50 (A549): > 100 µM (inactive) | GI50 (ACHN): > 100 µM (inactive) | GI50 (CCRF-CEM): > 100 µM (inactive) | GI50 (COLO 205): > 100 µM (inactive) | GI50 (DLD-1): > 100 µM (inactive) | GI50 (DMS-114): > 100 µM (inactive) | GI50 (DMS-273): > 100 µM (inactive) | GI50 (EKVX): > 100 µM (inactive) | GI50 (HCC 2998): > 100 µM (inactive) | GI50 (HCT-116): > 100 µM (inactive) | GI50 (HL-60): > 100 µM (inactive) | GI50 (HOP-18): > 100 µM (inactive) | GI50 (HOP-62): > 100 µM (inactive) | GI50 (HOP-92): > 100 µM (inactive) | GI50 (HT-29): > 100 µM (inactive) | GI50 (IGROV-1): > 100 µM (inactive) | GI50 (K562): > 100 µM (inactive) | GI50 (KM-20L2): > 100 µM (inactive) | GI50 (KM12): > 100 µM (inactive) | GI50 (LOX IMVI): > 100 µM (inactive) | GI50 (LXFL 529): > 100 µM (inactive) | GI50 (M14): > 100 µM (inactive) | GI50 (MOLT-4): > 100 µM (inactive) | GI50 (Malme-3M): > 100 µM (inactive) | GI50 (NCI-H226): > 100 µM (inactive) | GI50 (NCI-H23): > 100 µM (inactive) | GI50 (NCI-H460): > 100 µM (inactive) | GI50 (NCI-H522): > 100 µM (inactive) | GI50 (OVCAR-3): > 100 µM (inactive) | GI50 (OVCAR-8): > 100 µM (inactive) | GI50 (RPMI-8226): > 100 µM (inactive) | GI50 (RXF 393): > 100 µM (inactive) | GI50 (SF-268): > 100 µM (inactive) | GI50 (SF-295): > 100 µM (inactive) | GI50 (SF-539): > 100 µM (inactive) | GI50 (SK-MEL-28): > 100 µM (inactive) | GI50 (SK-MEL-2): > 100 µM (inactive) | GI50 (SK-OV-3): > 100 µM (inactive) | GI50 (SN12C): > 100 µM (inactive) | GI50 (SNB-19): > 100 µM (inactive) | GI50 (SNB-75): > 100 µM (inactive) | GI50 (SNB-78): > 100 µM (inactive) | GI50 (SR): > 100 µM (inactive) | GI50 (SW-620): > 100 µM (inactive) | GI50 (TK-10): > 100 µM (inactive) | GI50 (U-251): > 100 µM (inactive) | GI50 (UACC-257): > 100 µM (inactive) | GI50 (UACC-62): > 100 µM (inactive) | GI50 (UO-31): > 100 µM (inactive) | GI50 (XF498): > 100 µM (inactive)

N=C(N)NCCCCCCC(=O)NC(O)C(=O)NCCCCNCCCN (stereo not drawn)
GI50 (786-0): 3070 µM (inactive) | GI50 (A498): > 750 µM (inactive) | GI50 (A549): 473 µM (inactive) | GI50 (ACHN): > 750 µM (inactive) | GI50 (BT-549): 372 µM (inactive) | GI50 (CCRF-CEM): 515 µM (inactive) | GI50 (COLO 205): 600 µM (inactive) | GI50 (DLD-1): 723 µM (inactive) | GI50 (DMS-114): 69.2 µM (inactive) | GI50 (DMS-273): > 750 µM (inactive) | GI50 (DU-145): > 750 µM (inactive) | GI50 (EKVX): 643 µM (inactive) | GI50 (HCC 2998): > 562 µM (inactive) | GI50 (HCT-116): 711 µM (inactive) | GI50 (HCT-15): 656 µM | GI50 (HL-60): > 750 µM (inactive) | GI50 (HOP-18): 710 µM (inactive) | GI50 (HOP-62): 726 µM (inactive) | GI50 (HOP-92): 360 µM (inactive) | GI50 (HT-29): > 750 µM (inactive) | GI50 (Hs-578T): 748 µM (inactive) | GI50 (IGROV-1): 665 µM (inactive) | GI50 (K562): 551 µM (inactive) | GI50 (KM-20L2): 600 µM (inactive) | GI50 (KM12): 577 µM (inactive) | GI50 (LOX IMVI): 605 µM (inactive) | GI50 (M14): > 750 µM (inactive) | GI50 (M19-MEL): 719 µM (inactive) | GI50 (MCF7): 745 µM (inactive) | GI50 (MDA-MB-231): > 750 µM (inactive) | GI50 (MDA-MB-435): > 750 µM (inactive) | GI50 (MDA-N): 2360 µM (inactive) | GI50 (MOLT-4): 659 µM (inactive) | GI50 (Malme-3M): 582 µM (inactive) | GI50 (NCI-H226): 687 µM (inactive) | GI50 (NCI-H23): 684 µM (inactive) | GI50 (NCI-H460): 718 µM (inactive) | GI50 (NCI-H522): 479 µM (inactive) | GI50 (NCI/ADR-RES): > 750 µM (inactive) | GI50 (OVCAR-3): 474 µM (inactive) | GI50 (OVCAR-4): 550 µM (inactive) | GI50 (OVCAR-5): > 750 µM (inactive) | GI50 (OVCAR-8): 641 µM (inactive) | GI50 (PC-3): > 750 µM (inactive) | GI50 (RPMI-8226): 483 µM (inactive) | GI50 (RXF 393): 700 µM (inactive) | GI50 (SF-268): > 750 µM (inactive) | GI50 (SF-295): 553 µM (inactive) | GI50 (SF-539): > 628 µM (inactive) | GI50 (SK-MEL-28): > 750 µM (inactive) | GI50 (SK-MEL-2): 505 µM (inactive) | GI50 (SK-MEL-5): > 750 µM (inactive) | GI50 (SK-OV-3): > 750 µM (inactive) | GI50 (SN12C): > 750 µM (inactive) | GI50 (SNB-19): 695 µM (inactive) | GI50 (SNB-75): 335 µM (inactive) | GI50 (SNB-78): > 750 µM (inactive) | GI50 (SR): 1280 µM (inactive) | GI50 (SW-620): > 750 µM (inactive) | GI50 (T47D): > 750 µM (inactive) | GI50 (TK-10): > 750 µM (inactive) | GI50 (U-251): 611 µM (inactive) | GI50 (UACC-257): > 750 µM (inactive) | GI50 (UACC-62): 711 µM (inactive) | GI50 (UO-31): 590 µM (inactive) | GI50 (XF498): 100 µM (inactive)
